In assay [1] the test system is patients with moderate to severe rheumatoid arthritis. Particulars: VeRA trial, cohort of 315 patients with moderate to severe rheumatoid arthritis; placebo effect about 30 %; cited from earlier work.
For assay [2] the test system is unchanged. Nature of the assay: VeRA trial of p38MAPK inhibitor in rheumatoid arthritis patients. The format is in vivo. Particulars: according to a Monte Carlo simulation of the distribution of the effects. As for the experimental part: It has been claimed that p38MAPK inhibitors were of benefit in treating a large variety of disorders. […] In the VeRA trial, which was conducted to evaluate treatment effects in terms of characteristic manifestations of the disease such as tender joints, swollen joints, morning stiffness and disease activity in a cohort of 315 patients with moderate to severe rheumatoid arthritis, approximately 40 % of patients were responsive to treatment with the p38MAPK inhibitor VX-702, compared to a placebo effect of about 30 %, arguing for a biochemical net response rate of about 28 % according to a Monte Carlo simulation of the distribution of the effects. So far, no explanation for this evident dichotomy between responders and non-responders has been proposed yet.

The target of another assay is p38MAPKα (Homo sapiens, UniProt Q16539). To be noted: read-out: IC50 for p38MAPKα; disclosed in WO 2004/110990; cited from earlier work.
p38MAPKα, sequence (Q16539 whole entry): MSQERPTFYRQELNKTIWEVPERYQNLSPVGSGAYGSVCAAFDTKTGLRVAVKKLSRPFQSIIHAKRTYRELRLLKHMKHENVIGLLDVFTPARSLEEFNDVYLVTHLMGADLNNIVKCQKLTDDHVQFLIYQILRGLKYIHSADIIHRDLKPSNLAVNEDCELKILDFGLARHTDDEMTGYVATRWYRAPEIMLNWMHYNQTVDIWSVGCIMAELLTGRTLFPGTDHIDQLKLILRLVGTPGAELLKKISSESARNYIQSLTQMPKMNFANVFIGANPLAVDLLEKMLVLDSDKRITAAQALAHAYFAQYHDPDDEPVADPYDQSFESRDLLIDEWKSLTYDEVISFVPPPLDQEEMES

As usually defined, the IC50 is the midpoint of a concentration-inhibition curve.

`NC(=O)c1ccc(N(C(N)=O)c2c(F)cccc2F)nc1-c1ccc(F)cc1F` [VX-702]: the “patients responsive to treatment” value in assay [1] is on record as “approximately 40%”. In addition, the “biochemical net response rate” value in assay [2] is on record as “about 28%”. Regarding `Fc1ccc(-c2nc3occn3c2-c2ccnc(NC3CC3)n2)cc1` [4-(4-fluorophenyl)-5-(2-[cyclopropyl-amino]-pyrimidyl-4-yl)-imidazooxazole], the IC50 on p38MAPKα is 0.44 nM.

Values taken from patent publication EP1909102A1, “Method for subgroup analysis in subjects having or being suspected of having inflammatory disease, use of anti-p38mapk antibodies, kits and their use” (c-a-i-r biosciences GmbH, priority 2006, dated 2008).
